In PubChem BioAssay AID228 (DTP/NCI, 2004):
Where “and” joins values, the source holds several entries; their conditions need not be identical. Equal values may be shown once. Records with an inconclusive call do not appear.

System: BDF1 mice, Friend leukemia sc, tumor weight T/C
Assay: NCI In Vivo Anticancer Drug Screen. Data for tumor model Friend Virus Leukemia (Solid) (subcutaneous) in B6D2F1 (BDF1) mice
Details: endpoint: mean tumor weight, higher = larger tumour
Protocol: The antitumor activity of compounds was measured in mice bearing transplantable tumors. Survival or tumor size were measured and the results are expressed as the measurement made in the treated group (T) divided by the measurement made in the vehicle treated control group (C). The tumor model used in this assay is Friend Virus Leukemia (Solid) (subcutaneous) in B6D2F1 (BDF1) mice

[1] = dose: 12.0 mg/kg/injection, schedule: Q01DX011 (ip), vehicle: carboxymethylcellulose (CMC)
[2] = dose: 25.0 mg/kg/injection, schedule: Q01DX011 (ip), vehicle: carboxymethylcellulose (CMC)
[3] = dose: 100.0 mg/kg/injection, schedule: Q01DX011 (ip), vehicle: carboxymethylcellulose (CMC)
[4] = dose: 250.0 mg/kg/injection, schedule: Q01DX011 (ip), vehicle: carboxymethylcellulose (CMC)
[5] = dose: 500.0 mg/kg/injection, schedule: Q01DX011 (ip), vehicle: carboxymethylcellulose (CMC)
[6] = dose: 6.0 mg/kg/injection, schedule: Q01DX011 (ip), vehicle: carboxymethylcellulose (CMC)
[7] = dose: 50.0 mg/kg/injection, schedule: Q01DX011 (ip), vehicle: carboxymethylcellulose (CMC)
[8] = dose: 75.0 mg/kg/injection, schedule: Q01DX011 (ip), vehicle: carboxymethylcellulose (CMC)
[9] = dose: 150.0 mg/kg/injection, schedule: Q01DX011 (ip), vehicle: carboxymethylcellulose (CMC)

For CN(C)c1ccc(C(=C(c2ccc(N(C)C)cc2)c2ccc(N(C)C)cc2)c2ccc(N(C)C)cc2)cc1, the T/C (dose: 3.0 mg/kg/injection, schedule: Q01DX011 (ip), vehicle: olive oil, sesame oil, peanut oil) was 179 % of control, the T/C (dose: 6.0 mg/kg/injection, schedule: Q01DX011 (ip), vehicle: olive oil, sesame oil, peanut oil) was 178 % of control and 237 % of control and the T/C (dose: 12.5 mg/kg/injection, schedule: Q01DX011 (ip), vehicle: olive oil, sesame oil, peanut oil) was 178 % of control. For the same compound, the T/C (dose: 50.0 mg/kg/injection, schedule: Q01DX011 (ip), vehicle: olive oil, sesame oil, peanut oil) was 65 % of control and 63 % of control, the T/C (dose: 200.0 mg/kg/injection, schedule: Q01DX011 (ip), vehicle: olive oil, sesame oil, peanut oil) was 55 % of control and the T/C (dose: 300.0 mg/kg/injection, schedule: Q01DX011 (ip), vehicle: olive oil, sesame oil, peanut oil) was 82 % of control. The T/C (dose: 400.0 mg/kg/injection, schedule: Q01DX011 (ip), vehicle: olive oil, sesame oil, peanut oil) was 80 % of control.
CSc1ncnc2c1ncn2C1CCCO1 (stereo unspecified) was tested, and the T/C [1] was 96 % of control, the T/C [2] was 45 % of control and the T/C [3] was 3 % of control and 9 % of control.
Cc1ncc(CO)c(C)c1O was tested, and the T/C (dose: 22.75 mg/kg/injection, schedule: Q01DX011 (ip), vehicle: carboxymethylcellulose (CMC)) was 54 % of control, the T/C (dose: 45.5 mg/kg/injection, schedule: Q01DX011 (ip), vehicle: carboxymethylcellulose (CMC)) was 111 % of control and the T/C (dose: 121.0 mg/kg/injection, schedule: Q01DX011 (ip), vehicle: carboxymethylcellulose (CMC)) was 84 % of control and 98 % of control. For the same compound, the T/C (dose: 126.0 mg/kg/injection, schedule: Q01DX011 (ip), vehicle: carboxymethylcellulose (CMC)) was 112 % of control.
Nc1nc(SCc2ccccc2)c2ncn(C3CCCC3)c2n1 was tested, and the T/C [4] was 69 % of control, the T/C [5] was 64 % of control and the T/C (dose: 1000.0 mg/kg/injection, schedule: Q01DX011 (ip), vehicle: carboxymethylcellulose (CMC)) was 5 % of control.
Nc1nc(N)c(N=O)c(Nc2ccc(Cl)c(Cl)c2)n1 was tested, and the T/C (dose: 3.75 mg/kg/injection, schedule: Q01DX011 (ip), vehicle: carboxymethylcellulose (CMC)) was 153 % of control, the T/C (dose: 7.5 mg/kg/injection, schedule: Q01DX011 (ip), vehicle: carboxymethylcellulose (CMC)) was 69 % of control and the T/C (dose: 15.0 mg/kg/injection, schedule: Q01DX011 (ip), vehicle: carboxymethylcellulose (CMC)) was 109 % of control. For the same compound, the T/C (dose: 30.0 mg/kg/injection, schedule: Q01DX011 (ip), vehicle: carboxymethylcellulose (CMC)) was 91 % of control.
In the case of O=S(=O)(O)c1cccnc1, the T/C (dose: 39.0 mg/kg/injection, schedule: Q01DX011 (ip), vehicle: carboxymethylcellulose (CMC)) is reported as 86 % of control and 101 % of control and the T/C (dose: 157.0 mg/kg/injection, schedule: Q01DX011 (ip), vehicle: carboxymethylcellulose (CMC)) is reported as 98 % of control and 110 % of control.
In the case of CCCNC(=NC)c1ccc(NC(=O)c2ccc(C(=O)Nc3ccc(C(=NC)NCCC)cc3)cc2)cc1, the T/C (dose: 3.0 mg/kg/injection, schedule: Q01DX011 (ip), vehicle: carboxymethylcellulose (CMC)) is reported as 80 % of control and the T/C [6] is reported as 65 % of control.
For C=C(C)C(=O)OCC1CO1 (stereo unspecified), the T/C (dose: 50.0 mg/kg/injection, schedule: Q01DX011 (ip), vehicle: water) was 99 % of control and the T/C (dose: 100.0 mg/kg/injection, schedule: Q01DX011 (ip), vehicle: water) was 110 % of control.
For C1CC[N-]CC1.C1CC[N-]CC1.C1CC[N-]CC1.C1CC[N-]CC1.[Cl][Co][Cl], the T/C [7] was 160 % of control.
C[C@H]1C[C@H]2[C@@H]3CC[C@](O)(C(=O)CO)[C@@]3(C)C[C@H](O)[C@]2(F)[C@@]2(C)C=CC(=O)C=C12 was tested, and the T/C (dose: 0.5 mg/kg/injection, schedule: Q01DX011 (sc), vehicle: steriod suspending solution) was 61 % of control and 63 % of control, the T/C (dose: 1.0 mg/kg/injection, schedule: Q01DX011 (sc), vehicle: steriod suspending solution) was 76 % of control and 91 % of control and the T/C (dose: 3.0 mg/kg/injection, schedule: Q01DX011 (sc), vehicle: steriod suspending solution) was 60 % of control and 74 % of control. The T/C (dose: 6.0 mg/kg/injection, schedule: Q01DX011 (sc), vehicle: steriod suspending solution) was 31 % of control, the T/C (dose: 7.0 mg/kg/injection, schedule: Q01DX011 (sc), vehicle: steriod suspending solution) was 47 % of control and the T/C (dose: 15.0 mg/kg/injection, schedule: Q01DX011 (sc), vehicle: steriod suspending solution) was 28 % of control. The T/C (dose: 30.0 mg/kg/injection, schedule: Q01DX011 (sc), vehicle: steriod suspending solution) was 17 % of control, the T/C (dose: 60.0 mg/kg/injection, schedule: Q01DX011 (sc), vehicle: steriod suspending solution) was 10 % of control and the T/C (dose: 120.0 mg/kg/injection, schedule: Q01DX011 (sc), vehicle: steriod suspending solution) was 5 % of control.
In the case of COc1cc([C@@H]2c3cc4c(cc3[C@H](O)[C@H]3COC(=O)[C@H]23)OCO4)cc(OC)c1OC, the T/C (dose: 0.13 mg/kg/injection, schedule: Q01DX011 (ip), vehicle: carboxymethylcellulose (CMC)) is reported as 86 % of control, the T/C (dose: 0.55 mg/kg/injection, schedule: Q01DX011 (ip), vehicle: carboxymethylcellulose (CMC)) is reported as 86 % of control and the T/C (dose: 135.0 micrograms/kg/injection, schedule: Q01DX011 (ip), vehicle: carboxymethylcellulose (CMC)) is reported as 83 % of control. For the same compound, the T/C (dose: 270.0 micrograms/kg/injection, schedule: Q01DX011 (ip), vehicle: carboxymethylcellulose (CMC)) was 114 % of control, the T/C (dose: 550.0 micrograms/kg/injection, schedule: Q01DX011 (ip), vehicle: carboxymethylcellulose (CMC)) was 75 % of control and the T/C (dose: 1100.0 micrograms/kg/injection, schedule: Q01DX011 (ip), vehicle: carboxymethylcellulose (CMC)) was 87 % of control.
In the case of CCC[CH2][Sn]1([CH2]CCC)[O]C(=O)C[S]1, the T/C (dose: 0.62 mg/kg/injection, schedule: Q01DX011 (ip), vehicle: carboxymethylcellulose (CMC)) is reported as 98 % of control and the T/C (dose: 1.25 mg/kg/injection, schedule: Q01DX011 (ip), vehicle: carboxymethylcellulose (CMC)) is reported as 68 % of control.
In the case of S=c1nc[nH]c2c1ncn2C1CCCO1 (stereo unspecified), the T/C (dose: 0.75 mg/kg/injection, schedule: Q01DX011 (ip), vehicle: carboxymethylcellulose (CMC)) is reported as 79 % of control, the T/C (dose: 1.5 mg/kg/injection, schedule: Q01DX011 (ip), vehicle: carboxymethylcellulose (CMC)) is reported as 65 % of control and the T/C [6] is reported as 54 % of control and 35 % of control. The T/C [1] was 27 % of control and 45 % of control, the T/C [2] was 9 % of control and 10 % of control and the T/C [7] was 2 % of control and 20 % of control. The T/C [3] was 1 % of control and 3 % of control.
For CC(C)(c1ccccc1)c1ccc(O)cc1, the T/C (dose: 37.5 mg/kg/injection, schedule: Q01DX011 (ip), vehicle: carboxymethylcellulose (CMC)) was 94 % of control, the T/C [8] was 107 % of control and the T/C [9] was 87 % of control.
For OCCc1ccccc1, the T/C (dose: 62.0 mg/kg/injection, schedule: Q01DX011 (ip), vehicle: carboxymethylcellulose (CMC)) was 83 % of control, the T/C (dose: 125.0 mg/kg/injection, schedule: Q01DX011 (ip), vehicle: carboxymethylcellulose (CMC)) was 63 % of control and the T/C [4] was 57 % of control. For the same compound, the T/C [5] was 51 % of control.
In the case of O=c1[nH]c(=O)n(C2CC(O)C(CO)O2)cc1F (stereo unspecified), the T/C (dose: 16.0 mg/kg/injection, schedule: Q01DX011 (ip), vehicle: saline) is reported as 92 % of control, the T/C [2] is reported as 109 % of control and the T/C (dose: 32.0 mg/kg/injection, schedule: Q01DX011 (ip), vehicle: saline) is reported as 97 % of control. For the same compound, the T/C (dose: 60.0 mg/kg/injection, schedule: Q01DX011 (ip), vehicle: carboxymethylcellulose (CMC)) was 72 % of control and 47 % of control, the T/C (dose: 84.0 mg/kg/injection, schedule: Q01DX011 (ip), vehicle: saline) was 119 % of control and the T/C [3] was 4 % of control and 16 % of control. The T/C (dose: 120.0 mg/kg/injection, schedule: Q01DX011 (ip), vehicle: carboxymethylcellulose (CMC)) was 18 % of control and the T/C (dose: 126.0 mg/kg/injection, schedule: Q01DX011 (ip), vehicle: saline) was 16 % of control and 30 % of control.
CC(/C=N/N=C(N)N)=N/N=C(N)N was tested, and the T/C (dose: 50.0 mg/kg/injection, schedule: Q01DX011 (ip), vehicle: saline) was 124 % of control.
COc1ccc(-c2coc3cc(OC)c(OC)c(OC)c3c2=O)cc1 was tested, and the T/C (dose: 50.0 mg/kg/injection, schedule: Q01DX011 (sc), vehicle: steriod suspending solution) was 299 % of control, the T/C (dose: 100.0 mg/kg/injection, schedule: Q01DX011 (sc), vehicle: steriod suspending solution) was 250 % of control and the T/C (dose: 200.0 mg/kg/injection, schedule: Q01DX011 (sc), vehicle: steriod suspending solution) was 275 % of control.
In the case of ClCCn1cnc2c(SCc3ccccc3)ncnc21, the T/C (dose: 18.0 mg/kg/injection, schedule: Q01DX011 (ip), vehicle: carboxymethylcellulose (CMC)) is reported as 85 % of control, the T/C (dose: 37.0 mg/kg/injection, schedule: Q01DX011 (ip), vehicle: carboxymethylcellulose (CMC)) is reported as 35 % of control and the T/C [8] is reported as 32 % of control. For the same compound, the T/C [9] was 11 % of control and 35 % of control and the T/C (dose: 300.0 mg/kg/injection, schedule: Q01DX011 (ip), vehicle: carboxymethylcellulose (CMC)) was 4 % of control.
